This note sets out measurements from the SangsterLogP compilation.

Structures are written as SMILES.

The nature of series [1]: method code SF-HPLC, from DOI: 10.1016/j.bmc.2015.09.009, PMID: 26385444.
Series [2] in a line: method code SF-AS, from DOI: 10.1021/jm00234a001, PMID: 1003419.
Assay in series [3]: not given
This is another data set of the same source.

Series [4] can be described thus: method code SF-RC, from DOI: 10.1021/jf60186a044, PMID: 4688915.
Series [5] in a line: method code SF-HPLC, from DOI: 10.1248/cpb.47.1081, PMID: 10478463. As to conditions: pH 6.5.
Series [6] is described as follows: method code SF, from PMID: 25193232. As to conditions: pH 7.4.
Series [7] is described as follows: method code SF-HPLC, from PMID: 9554875. The following applies: pH 6.8.
A short description of series [8]: method code SF-HPLC, from DOI: 10.1016/s0223-5234(98)80037-8. As to conditions: pH 7.4.
Series [9] is described as follows: method code SF-HPLC, from DOI: 10.1016/0731-7085(91)80215-u, PMID: 1821151. The following applies: pH 7.4.
Series [10] is described as follows: method code SF-AS, from DOI: 10.1002/ardp.19853180604, PMID: 4026543. The following applies: pH 7.4.
Assay in series [11]: not given
The source holds these as a separate data set.

Series [12] in a line: method code SF, from DOI: 10.1021/jm00294a005, PMID: 5000561.
Assay in series [13]: not given
This is another data set of the same source.

Assay in series [14]: not given
The source holds these as a separate data set.

A short description of series [15]: method code SF-HPLC, from DOI: 10.1016/0378-5173(90)90181-3. As to conditions: pH 7.4.
Series [16] is described as follows: method code SF-AS, from DOI: 10.1016/0378-5173(85)90003-1.
The nature of series [17]: method code SF-HPLC, from DOI: 10.1080/01483919108049396. The following applies: pH 7.0.
Series [18] is described as follows: method code SF-HPLC, from DOI: 10.1016/s0024-3205(00)00615-9, PMID: 10901288. The following applies: pH 5.0.
The nature of series [19]: method code SF, from DOI: 10.1016/0006-2952(79)90295-8, PMID: 36087.
Assay in series [20]: not given
The source holds these as a separate data set.

Series [21] in a line: method code SF-HPLC, from DOI: 10.1023/a:1011018730459, PMID: 11451042.

In the case of `CC1=C(C(=O)Nc2nc3ccccc3s2)C(c2ccc(N(C)C)cc2)NC(=S)N1` (stereo not drawn), the logP in series [1] turned out to be 2.22. Take `OCC1OC(Oc2cc(OC3OC(CO)C(O)C(O)C3O)c(I)cc2I)C(O)C(O)C1O` (stereo not drawn): the logP in [2] is -0.25. In turn, `COc1ccc2cc(C(C)C(=O)OCC(COC(=O)C(C)c3ccc4cc(OC)ccc4c3)OC(=O)C(C)c3ccc4cc(OC)ccc4c3)ccc2c1` (stereo not drawn) yielded a logP of 6.84. In turn, `OCC1OC(Oc2c(I)cc(I)c(OC3OC(CO)C(O)C(O)C3O)c2I)C(O)C(O)C1O` (stereo not drawn) came in with a logP in series [2] of -0.74. `COc1cc(C=Cc2ccncc2)ccc1C=Cc1ccncc1` showed a logP in series [3] of 3.73. `CSc1ccc(C(c2ccc(SC)cc2)C(Cl)(Cl)Cl)cc1` came in with a logP in series [4] of 3.85. `CON=C(C(=O)NC1C(=O)N2C(C(=O)OCOC(=O)C(C)(C)C)=CCSC12)c1csc(N)n1` (stereo not drawn): the logD in series [5] is 1.57. In turn, `O=C(NOCCO)c1ccn2cncc2c1Nc1ccc(I)cc1F` came in with a logD in series [6] of 2.05. For `Cc1cn(C2C=CC(COP3(=O)OCc4cc([N+](=O)[O-])ccc4O3)O2)c(=O)[nH]c1=O` (stereo not drawn), the logD in series [7] came out at 0.18. `CC(=O)Oc1ccccc1C(=O)OCN1C(=O)c2ccccc2C1=O` had a logD in [8] of 3.23. `CCC(=O)OCC(c1cncn1C)C(CC)C(=O)OCC1CCCCC1` (stereo not drawn) returned a logD in series [9] of 4.4. `COc1ccc(N2C(=O)CSC2=Nn2c(C)nc3ccccc3c2=O)cc1` displayed a logD in series [10] of -1.23.

As for `OC(CCCN1CCC(C(O)(c2ccccc2)c2ccccc2)CC1)c1ccccc1` (stereo not drawn), the log partition coefficient (logP) in [11] stood at 3.9. In [12], `CCC(=O)OC1C(C)OC(OC2C(C)OC(OC3C(CC=O)CC(C)C(O)/C=C/C=C/CC(C)OC(=O)CC(OC(C)=O)C3OC)C(O)C2N(C)C)CC1(C)O` (stereo not drawn) registered a logP of 1.38. As to `Cc1cccc2c1Oc1cc(Cl)ccc1C2NC(=O)CN(C)C` (stereo not drawn), in series [13], the lipophilicity (logP) is 3.44. On to `Cc1nc2ccccc2c(=O)n1N=C1SCC(=O)N1c1ccc(F)cc1`, for which, in series [10], the pH-dependent lipophilicity (logD) was -1.36. `CO[C@@H]1[C@@H](O[C@@H]2O[C@H](C)[C@@H](O[C@H]3C[C@@](C)(O)[C@@H](OC(=O)CC(C)C)[C@H](C)O3)[C@H](N(C)C)[C@H]2O)[C@@H](CC=O)C[C@@H](C)[C@@H](O)/C=C/C=C/C[C@@H](C)OC(=O)C[C@H]1O` had a log partition coefficient (logP) in series [12] of 2.18.

For the compound `CCC(C(=O)OCC1CCCCC1)C(COC(=O)c1ccccc1)c1cncn1C` (stereo not drawn), in [9], the logD was found to be 5.47.

`CC1=C(C(=O)Nc2nc3ccccc3s2)C(c2ccc(F)cc2)NC(=S)N1` (stereo not drawn): the logP in series [1] worked out at 2.18. Compound `OC1(c2cccc(I)c2)c2ccccc2C2=NCCN21` (stereo not drawn) gave a logP in [14] of 2.3.

As to `CC(O)CONC(=O)c1ncc2cncn2c1Nc1ccc(I)cc1F` (stereo not drawn), the logD in series [6] is 2.2. For the compound `COc1cccc2c1OP(=O)(OC[C@@H]1C=C[C@H](n3cc(C)c(=O)[nH]c3=O)O1)OC2` (stereo partly drawn), the logD in series [7] amounted to 0.15. `O=C(OCn1ncc2c(=O)[nH]cnc21)c1cccc(Cn2ccnc2)c1` had a logD in series [15] of 0.97.

`CC(=O)OCC1=C(C(=O)OCOC(=O)C(C)(C)C)N2C(=O)C(NC(=O)CSc3ccncc3)C2SC1` (stereo not drawn): the logD in [16] (pH 4.6) is 1.63. In [5], `CCOC(=O)OC(C)OC(=O)C1=CCSC2C(NC(=O)C(=NOC)c3csc(N)n3)C(=O)N12` (stereo not drawn) yielded a logD of 0.96. Same read-out and setting: the result for `CO/N=C(/C(=O)NC1C(=O)N2C(C(=O)OCc3oc(=O)oc3C)=CCSC12)c1csc(N)n1` (stereo not drawn) reads 0.17. As for `CN1CCC(=C2c3ccccc3CCc3cccnc32)CC1`, the log partition coefficient (logP) in series [11] is 3.59.

Consider `O=C(Nc1ccn(C2OC(CO)C(O)C2O)c(=O)n1)c1ccccc1` (stereo not drawn), for which the logD in series [17] came out at 0.3. For `COc1ccc2cc(C(C)C(=O)OCC3COC(C)(C)O3)ccc2c1` (stereo not drawn), the logP turned out to be 4.23.

In series [18], `CCN(CC)C(=O)C(C#N)=Cc1cc(OC(=O)NC(C)(C)C)c(O)c([N+](=O)[O-])c1` yielded a logD of 1.8. Take `COc1ccc2cc(C(C)C(=O)OCC(O)CO)ccc2c1` (stereo not drawn): the logP is 2.65. As for `Cc1cn(C2C=CC(COP3(=O)OCc4cc(Cl)ccc4O3)O2)c(=O)[nH]c1=O` (stereo not drawn), the logD in series [7] was determined as 0.88.

Consider `COc1ccc(C(c2ccc(SC)cc2)C(Cl)(Cl)Cl)cc1` (stereo not drawn), for which, in series [4], the logP turned out to be 2.9.

As to `CCNC(=O)Oc1cc(/C=C(\C#N)C(=O)N(CC)CC)cc([N+](=O)[O-])c1O`, the logD in series [18] was found to be 0.82. With `Clc1ccc2c(c1)CCc1cccnc1C2=C1CCNCC1`, the logP in series [11] worked out at 2.56.

`Cc1cccc2c1Oc1ccccc1C2NC(=O)CN(C)C` (stereo not drawn) had a logP in series [13] of 2.7. In turn, `CC(=O)NCc1cccc(OCC(O)CNC(C)C)c1` (stereo not drawn) showed a logP in series [19] of 0.34. With `CCN(CC)CC(=O)NC1c2ccccc2Oc2c(C)cccc21` (stereo not drawn), the logP in [13] stood at 3.73.

`CNC(=O)COc1ccc(OCC(O)CNC(C)C)cc1` (stereo not drawn) registered a logP in series [19] of 0.56. For the compound `COc1ccc2c(c1)c(CC(=O)OCN1C(=O)c3ccccc3C1=O)c(C)n2C(=O)c1ccc(Cl)cc1`, in series [8], the logD was determined as 5.64. Turning to `CCN1CCN(Cc2ccc(OC)c(OC)c2OC)CC1`, in series [20], the logP was 1.69.

Compound `C(=Cc1ccccn1)c1ccc(C=Cc2ccccn2)cc1` came in with a logP in [3] of 3.75. As to `O=C(Nc1ncnc2c1ncn2[C@H]1C[C@H](O)[C@@H](CO)O1)c1ccccc1`, in series [17], the logD was 0.22. The compound `CNC(=O)c1c(I)c(O[C@@H]2O[C@H](CO)[C@@H](O)[C@H](O)[C@H]2O)c(I)c(O[C@@H]2O[C@H](CO)[C@@H](O)[C@H](O)[C@H]2O)c1I` registered a logP in [2] of -1.57. Turning to `CC1=C(C(=O)Nc2nc3ccccc3s2)C(c2ccc(C(F)(F)F)cc2)NC(=S)N1` (stereo not drawn), in series [1], the logP stood at 2.92. In [17], `O=C(Nc1ncnc2c1ncn2[C@@H]1O[C@H](CO)[C@@H](O)[C@H]1O)c1ccccc1` displayed a logD of -0.1. On to `CCC(C(=O)OCC1CCCCC1)C(COC(C)=O)c1cncn1C` (stereo not drawn), for which the logD in [9] is 3.86. In the case of `Cc1ccc(N2C(=O)CSC2=Nn2c(C)nc3ccccc3c2=O)cc1`, in [10], the logD is -1.12. `OC1(c2cccc(Br)c2)c2ccccc2C2=NCCN21` (stereo not drawn): the log partition coefficient (logP) in series [14] is 1.97. For `OC1(c2cccc(Cl)c2)c2ccccc2C2=NCCN21` (stereo not drawn), in series [14], the logP was determined as 1.85.

Consider `CC(C)Cc1ccc(C(C)C(=O)OCN2C(=O)c3ccccc3C2=O)cc1` (stereo not drawn), for which, in series [8], the logD is 5.36. For `CCCCC(=O)OCC1OC(n2cnc3c(NC4CCCC4)ncnc32)C(O)C1O` (stereo not drawn), the logP in series [21] is 2.79. In turn, `CNC(=O)COc1cccc(OCC(O)CNC(C)C)c1` (stereo not drawn) showed a logP in series [19] of 0.35. For the compound `CCN(CC)CCCC(C)Nc1c2ccc(Cl)cc2nc2ccc(OC)cc12` (stereo not drawn), the logP in series [20] stood at 5.09. On to `CC(C)(C)C(=O)OCOC(=O)C1=C(CSc2nncs2)CSC2C(NC(=O)Cn3cnnn3)C(=O)N12` (stereo not drawn), for which the logD in [16] (pH 4.6) is 1.45.

In series [15], `O=C(OCn1ncc2c(=O)[nH]cnc21)c1cccc(CN2CCOCC2)c1` gave a logD of 1.12.

In series [15], `O=C(OCn1ncc2c(=O)[nH]cnc21)c1ccc(CN2CCOCC2)cc1` had a logD of 1.13. Compound `CCCC1CC(C(=O)NC(C(C)O)C2OC(SC)C(O)C(O)C2O)N(C)C1` (stereo not drawn) gave a logP in series [12] of 0.2.

The compound `CCOc1ccc(C(c2ccc(C)cc2)C(Cl)(Cl)Cl)cc1` (stereo not drawn) gave a logP in [4] of 3.96. In [16] (pH 4.5), `Cc1nnc(SCC2=C(C(=O)OCOC(=O)C(C)(C)C)N3C(=O)C(NC(=O)Cn4cnnn4)C3SC2)s1` (stereo not drawn) came in with a logD of 1.34.

In turn, `CN1CCN(CCCN2c3ccccc3Sc3ccc(C(F)(F)F)cc32)CC1` displayed a log partition coefficient (logP) in series [20] of 4.71. The compound `CCCCNC(=O)Oc1cc(/C=C(\C#N)C(=O)N(CC)CC)cc([N+](=O)[O-])c1O` yielded a logD in series [18] of 1.98. Compound `O=C(NOC[C@H](O)CO)c1ncc2cncn2c1Nc1ccc(I)cc1F` gave a logD in [6] of 1.1.
